From US4778797A, “Organo-silicon compounds, process for the manufacture of same, and anti-tumor agent comprising the compound” (Sanwa Kagaku Kenkyusho Co., Ltd., priority 1984, dated 1988) come the findings set out here.

One series has as its system B-16 melanoma. Nature of the series: Anti-tumor action to B-16 melanoma. Type of series: in vivo, BDF1 female mice. Conditions: oral, tumor weight at 21st day; for inhibition in vivo at 300 mg/kg/day: 300 mg/kg/day × 3. From the text: B-16 melanoma (1×10^5 cells) was transplanted under skin of BDF1 female mice (age of about 5 weeks), and each of testing compounds was orally dosed at 1st, 5th and 9th day after the transplantation. At 21st day after the transplantation, the mice were killed to measure a weight of the cancerous tumor and to finally determine an inhibition ratio.

The nature of another series: Acute toxicity. Type of series: in vivo, CrJ/CDI female mice. The conditions noted are these: mouse, in vivo; oral gavage, suspended in 0.1% P-1570, female mice, 21 days observation. On the procedure:
Each of testing compounds suspended in 0.1% P-1570 was orally and forcedly dosed through a gastric probe to CrJ/CDI female mice (21 to 22 g, age of about 5 weeks). An identification number was given to each mouse, and a weighing and observation on general behavior were carried out just before the dosage and each day after the same. Each of died mice was subjected without delay to an autopsy to check the same, more particularly in detail on enterona. All of living mice were killed at 21st day from the dosage to carry out an autopsy for checking the same, more particularly on entrails.
An LD50 was calculated in accordance with the Leed and Munch's method.
A similar test was carried out on each controls of 1-[2-[(2-trimethylsilylethyl)thio]ethylcarbamoyl]-5-fluorouracil and 1-hexylcarbamoyl-5-fluorouracil (HCFU) which is one of exemplary anti-tumor agents.

A further series has as its system L-1210 leukemia. Description: Anti-tumor action to L-1210 leukemia. Type of series: in vivo, BDF1 female mice. The conditions noted are these: Mus musculus, L1210, oral; for ILS at 250 mg/kg/day: 250 mg/kg/day × 3 (1st, 5th, 9th day); for ILS at 500 mg/kg/day: 500 mg/kg/day × 3 (1st, 5th, 9th day). As for the experimental part: L-1210 leukemia cell (1×10^5 cells) was transplanted in a abdominal cavity of BDF1 female mice (20-21 g, age of about 5 weeks), and each of testing compounds was orally dosed in 250 mg/kg or 500 mg/kg at 1st, 5th and 9th day after the transplantation to check days of life of the mice. [formula]

Another series relates to Lewis lung carcinoma. Nature of the series: Anti-tumor action to Lewis lung carcinoma (primary tumor weight and metastasis). The class given is in vivo, BDF1 mice. The conditions noted are these: Mus musculus, po, 504 h; for inhibition in vivo at 13.5 mg/kg/day: 13.5 mg/kg/day × 10 + Amputation. From the text: Lewis lung carcinoma (1×10^5 cells) was transplanted under skin of right ear of BDF1 mice (age of about 5 weeks), and each of testing compounds was orally dosed 10 times from 1st to 10th day after the transplantation. At 21st day after the transplantation, the mice were killed to measure a weight of the primarly tumor and to extract a lung. The lung was fixed in a conventional manner to count a number of metastasis on cancerous cells with use of a stereomicroscope having a low magnification. An anti-tumor action of each compound was expressed with an inhibition in weight of the primarly tumor and an inhibition of the metastasis.

Another series has as its system Colon-38 carcinoma. Nature of the series: Anti-tumor action to Colon-38 carcinoma. Type of series: in vivo, BDF1 mice. Conditions: oral, tumor weight at 28th day. As for the experimental part:
0.02 ml of 10(W/V)% cell suspension prepared from a solid cancer cell (Colon-38 carcinoma) were transplanted under skin of BDF1 mice (20-21 g, age of about 5 weeks), and each of testing compounds was orally dosed to the mice at 1st, 5th and 9th day after the transplantation. A major and minor axes of the cancerous tumor were measured at 11th, 14th, 21st, 25th and 28th day after the transplantation to calcurate volume of the tumor in accordance with the following.
At 28th day from the transplantation, the mice were killed and each of the cancerous tumors was extracted to measure its weight and to determine an inhibitation ratio in comparison with a non-treated control group.

A further series deals with KB cells. Description: Suppression of KB cell proliferation in vitro. Type of series: cell-based. Conditions: Homo sapiens, 72 h, 3 days exposure, Trypan Blue dye-exclusion, read-out: KB IC50 (50% inhibition density to tumor cell proliferation). On the procedure: In a cultivation device (5% CO2, 37° C.), KB cells (1×10^4 cells) were cultivated for 24 hours in a culture tube with 1 ml of Eagle culture medium added 10% ox serum, the used culture medium was thrown away to change with a fresh culture medium (0.9 ml), and then 0.1 ml of a similar culture fluid containing each testing compound prepared by the process as described in the Examples was added to cultivate the same for further 3 days. Thereafter, living cells were dyed with Tripan Blue and measured same through a dye-exclusion method.
A control was treated in a manner similar to the above, except that a culture fluid containing no compound of the invention was added.
50% inhibition density (IC50) to the tumor cell proliferation was decided through the tests between the testing group and the control group to obtain results as shown in following Table 1.

The mark [1] stands for this setting: Mus musculus, B16, 504 h, 250 mg/kg/day × 3, read-out: B-16 melanoma Inhibition ratio.
Where [2] appears, read: Mus musculus, B16, 504 h, read-out: B-16 melanoma Inhibition ratio.

Values after ≈ are worked out from the molar mass of the structure shown. Read-outs that look alike come from different tables or passages of the source. Bounds are passed on as bounds.

As to `C[Si](C)(C)CCSCCCNC(=O)n1cc(F)c(=O)[nH]c1=O` [Example 8, 5-Fluoro-3,4-dihydro-2,4-dioxo-N-[3-[[2-(trimethylsilyl)ethyl]thio]propyl]-1-(2H)-pyrimidinecarboxamide], the inhibition in vivo at 250 mg/kg/day in the series with B-16 melanoma (setting [1]) amounted to 4.3%. Also, the median lethal dose (LD50) (commonly the dose expected to kill half of the subjects tested) at 504 h in “Acute toxicity” came to 1360 mg/kg. Besides, the values for the ILS at 250 mg/kg/day with L-1210 leukemia (read-out: L-1210 ILS) and in the series on L-1210 leukemia (read-out: L-1210 Judgement) were 27% and 25 to 50%, respectively. In addition, the results for the ILS at 500 mg/kg/day with L-1210 leukemia (read-out: L-1210 ILS) and in the series with L-1210 leukemia (read-out: L-1210 Judgement) were 70% and 50 to 100%, respectively. Besides, the inhibition in vivo at 13 mg/kg/day turned out to be 33.3% in the series on Lewis lung carcinoma (13 mg/kg/day × 10 + Amputation, 21st day, read-out: Inhibition Ratio weight LLC); 18.4% in the series with Lewis lung carcinoma (13 mg/kg/day × 10 + Amputation, lung, 21st day, printed in parentheses, read-out: Inhibition Ratio metastasis); 0% with Lewis lung carcinoma (13 mg/kg/day × 10, 21st day, read-out: Inhibition Ratio weight LLC); 53% in the series on Lewis lung carcinoma (13 mg/kg/day × 10, lung, 21st day, read-out: Inhibition Ratio metastasis). For the same compound, the inhibition in vivo at 26 mg/kg/day in the series on Lewis lung carcinoma (26 mg/kg/day × 10 + Amputation, 21st day, read-out: Inhibition Ratio weight LLC) came to 64.9%; in the series on Lewis lung carcinoma (26 mg/kg/day × 10 + Amputation, lung, 21st day, printed in parentheses, read-out: Inhibition Ratio metastasis) it was 33.6%; in the series with Lewis lung carcinoma (26 mg/kg/day × 10, 21st day, read-out: Inhibition Ratio weight LLC), 26.2%; in the series with Lewis lung carcinoma (26 mg/kg/day × 10, lung, 21st day, read-out: Inhibition Ratio metastasis), 92.5%. Also, in the series on Colon-38 carcinoma (Mus musculus, 672 h, 278 mg/kg/day × 3, read-out: colon-38 Inhibition ratio), the inhibition in vivo at 278 mg/kg/day came out at 78%. The IC50 with KB cells is 7 µg/mL (≈ 20.1 µM).
For the compound `C[Si](C)(C)CCCSCCCNC(=O)n1cc(F)c(=O)[nH]c1=O` [Example 10, 5-Fluoro-3,4-dihydro-2,4-dioxo-N-[3-[[3-(trimethylsilyl)propyl]thio]propyl]-1(2H)-pyrimidinecarboxamide], the inhibition in vivo at 125 mg/kg/day in the series on B-16 melanoma (Mus musculus, B16, 504 h, 125 mg/kg/day × 3, read-out: B-16 melanoma Inhibition ratio) came out at 38.1%. For the same compound, in the series with B-16 melanoma (setting [1]), the inhibition in vivo at 250 mg/kg/day is 15.2%. For the same compound, the 50% lethal dose (LD50) at 504 h in the series “Acute toxicity” turned out to be 2170 mg/kg. For the same compound, in the series on L-1210 leukemia (read-out: L-1210 ILS), the ILS at 250 mg/kg/day stood at 49% and the ILS at 500 mg/kg/day turned out to be 111%. In the series with L-1210 leukemia (read-out: L-1210 Judgement), the ILS at 250 mg/kg/day was in the range of 25 to 50% and the ILS at 500 mg/kg/day is not below 100%. The inhibition in vivo at 289 mg/kg/day in the series with Colon-38 carcinoma (Mus musculus, 672 h, 289 mg/kg/day × 3, read-out: colon-38 Inhibition ratio) was determined as 89.5%. In addition, the IC50 in the series on KB cells is 10 µg/mL (≈ 27.7 µM).
For the compound `CCCC[Si](C)(C)CCSCCNC(=O)n1cc(F)c(=O)[nH]c1=O` [Example 6, N-[2-[[2-(Butyldimethylsilyl)ethyl]thio]ethyl]-5-fluoro-3,4-dihydro-2,4-dioxo-1(2H)-pyrimidinecarboxamide], the inhibition in vivo at 300 mg/kg/day in the series on B-16 melanoma (setting [2]) was 53.5%. In addition, the ILS at 250 mg/kg/day in the series on L-1210 leukemia (read-out: L-1210 ILS) is 35%; with L-1210 leukemia (read-out: L-1210 Judgement) it was 25 to 50%. For the same compound, the ILS at 500 mg/kg/day was 73% in the series on L-1210 leukemia (read-out: L-1210 ILS) and 50 to 100% in the series on L-1210 leukemia (read-out: L-1210 Judgement). Moreover, the inhibition in vivo at 13.5 mg/kg/day was found to be 37.3% in the series with Lewis lung carcinoma (21st day, read-out: Inhibition Ratio weight LLC) and 18.3% in the series with Lewis lung carcinoma (lung, 21st day, printed in parentheses, read-out: Inhibition Ratio metastasis). Moreover, the inhibition in vivo at 27 mg/kg/day stood at 30.9% with Lewis lung carcinoma (27 mg/kg/day × 10 + Amputation, 21st day, read-out: Inhibition Ratio weight LLC); 23.1% in the series with Lewis lung carcinoma (27 mg/kg/day × 10 + Amputation, lung, 21st day, printed in parentheses, read-out: Inhibition Ratio metastasis); 39.6% with Lewis lung carcinoma (27 mg/kg/day × 10, 21st day, read-out: Inhibition Ratio weight LLC); 92.6% in the series on Lewis lung carcinoma (27 mg/kg/day × 10, lung, 21st day, read-out: Inhibition Ratio metastasis). Further, the inhibition in vivo at 54 mg/kg/day stood at 38% in the series on Lewis lung carcinoma (54 mg/kg/day × 10, 21st day, read-out: Inhibition Ratio weight LLC) and 95.1% in the series with Lewis lung carcinoma (54 mg/kg/day × 10, lung, 21st day, read-out: Inhibition Ratio metastasis). In the series with Colon-38 carcinoma (300 mg/kg/day × 3), the “colon-38 Inhibition ratio” value was 81.2%. Moreover, the IC50 with KB cells turned out to be 12 µg/mL (≈ 32 µM).
In the case of `CC(C)[Si](C)(C)CCSCCCNC(=O)n1cc(F)c(=O)[nH]c1=O` [Example 9, 5-Fluoro-3,4-dihydro-N-[3-[[2-(isopropyldimethylsilyl)ethyl]thio]propyl]-2,4-dioxo-1(2H)-pyrimidinecarboxamide], the “B-16 melanoma Inhibition ratio” value with B-16 melanoma (125 mg/kg/day × 3) worked out at 17.6%; in the series with B-16 melanoma (250 mg/kg/day × 3) it was 19.4%. Moreover, the ILS at 250 mg/kg/day in the series with L-1210 leukemia (read-out: L-1210 ILS) was 45%; in the series on L-1210 leukemia (read-out: L-1210 Judgement), 25 to 50%. Also, the values for the ILS at 500 mg/kg/day in the series with L-1210 leukemia (read-out: L-1210 ILS) and with L-1210 leukemia (read-out: L-1210 Judgement) were 80% and 50 to 100%, respectively. Also, the “colon-38 Inhibition ratio” value with Colon-38 carcinoma (338 mg/kg/day × 3) was determined as 98.4%. In the series with KB cells, the IC50 amounted to 15 µg/mL (≈ 39.9 µM).
Take `CC(C)[Si](C)(C)CCCSCCCNC(=O)n1cc(F)c(=O)[nH]c1=O` [Example 11, 5-Fluoro-3,4-dihydro-N-[3-[[3-(isopropyldimethylsilyl)propyl]thio]propyl]-2,4-dioxo-1(2H)-pyrimidinecarboxamide]: the entries for the “B-16 melanoma Inhibition ratio” value in the series with B-16 melanoma (125 mg/kg/day × 3) and in the series with B-16 melanoma (250 mg/kg/day × 3) were 32.8% and 45.7%, respectively. In addition, the values for the ILS at 250 mg/kg/day in the series with L-1210 leukemia (read-out: L-1210 ILS) and with L-1210 leukemia (read-out: L-1210 Judgement) were 18% and less than 25%, respectively. Also, the ILS at 500 mg/kg/day with L-1210 leukemia (read-out: L-1210 ILS) was 81%; in the series with L-1210 leukemia (read-out: L-1210 Judgement), 50 to 100%. Besides, in the series on Colon-38 carcinoma (350 mg/kg/day × 3), the “colon-38 Inhibition ratio” value is reported as 90.3%. In addition, the IC50 in the series with KB cells amounted to 13 µg/mL (≈ 33.4 µM).
In the case of `CC[Si](CC)(CC)CCSCCNC(=O)n1cc(F)c(=O)[nH]c1=O` [Example 2, 5-Fluoro-3,4-dihydro-2,4-dioxo-N-[2-[[(2-triethylsilyl)ethyl]thio]ethyl]-1(2H)-pyrimidinecarboxamide], the inhibition in vivo at 300 mg/kg/day with B-16 melanoma (setting [2]) worked out at 47.2%; with Colon-38 carcinoma (Mus musculus, 672 h, 300 mg/kg/day × 3, read-out: colon-38 Inhibition ratio) it was 71.9%. In “Acute toxicity”, this compound gave an LD50 at 504 h of 1540 mg/kg. Besides, the results for the ILS at 250 mg/kg/day in the series on L-1210 leukemia (read-out: L-1210 ILS) and in the series with L-1210 leukemia (read-out: L-1210 Judgement) were 19% and less than 25%, respectively. The ILS at 500 mg/kg/day was 96% with L-1210 leukemia (read-out: L-1210 ILS) and 50 to 100% with L-1210 leukemia (read-out: L-1210 Judgement). Further, the inhibition in vivo at 14 mg/kg/day was determined as 0% with Lewis lung carcinoma (14 mg/kg/day × 10, 21st day, read-out: Inhibition Ratio weight LLC) and 45.2% with Lewis lung carcinoma (14 mg/kg/day × 10, lung, 21st day, read-out: Inhibition Ratio metastasis). In addition, in the series on KB cells, the IC50 came out at 13 µg/mL (≈ 34.6 µM).
